Results as given in US11554118B2 (priority 2017, dated 2023).
Read-outs that look alike come from different tables or passages of the source.

What was measured:
[1] = biological target: BTK (Homo sapiens (Human), UniProt Q06187); assay: biochemical
Description: Btk kinase activity was determined using a homogenous time resolved fluorescence (HTRF) methodology. Measurements were performed in a reaction volume of 15 μL using 384-well assay plates. Kinase enzyme, inhibitor, ATP and 1 M peptide substrate were incubated in a reaction buffer compose of Hepes 50 mM (pH7.0), NaN3 0.02%, BSA 0.01%, Orthocanadate 0.1 mM. […] For each compound, enzyme activity as measured at various concentrations of compound, Negative control reactions were performed in the absence of inhibitor in two replicates and eight no enzyme controls were used to determine baseline fluorescence levels.

[2] = biological target: Btk (Mus musculus (Mouse), UniProt P35991); assay: Btk occupancy in vivo (PCI-33380 labeling of PBMCs or splenocytes); set-up: species or system BALB/c mice; details: Babc/L mice, after 4 hours
Chain of Btk (P35991 whole entry, looked up): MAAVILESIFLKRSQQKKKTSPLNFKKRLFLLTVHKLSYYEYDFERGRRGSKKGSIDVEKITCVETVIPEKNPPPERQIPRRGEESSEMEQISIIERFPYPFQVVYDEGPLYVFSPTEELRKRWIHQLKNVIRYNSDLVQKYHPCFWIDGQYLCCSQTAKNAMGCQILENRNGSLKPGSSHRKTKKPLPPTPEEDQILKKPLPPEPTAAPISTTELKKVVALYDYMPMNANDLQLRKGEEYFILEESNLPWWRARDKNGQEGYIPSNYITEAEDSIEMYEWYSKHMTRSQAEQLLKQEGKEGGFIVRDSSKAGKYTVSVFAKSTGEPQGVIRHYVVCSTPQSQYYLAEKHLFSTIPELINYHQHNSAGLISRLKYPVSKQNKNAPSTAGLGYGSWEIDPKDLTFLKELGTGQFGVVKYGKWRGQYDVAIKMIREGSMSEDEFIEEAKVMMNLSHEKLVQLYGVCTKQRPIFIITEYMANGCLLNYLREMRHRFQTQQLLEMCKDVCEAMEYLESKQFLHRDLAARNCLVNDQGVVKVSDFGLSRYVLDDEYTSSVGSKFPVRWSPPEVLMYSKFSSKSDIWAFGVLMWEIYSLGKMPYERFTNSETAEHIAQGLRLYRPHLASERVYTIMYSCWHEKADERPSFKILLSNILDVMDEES
Description: For analysis of Btk occupancy in Babc/L mice following oral dosing of compounds after 4 hours. Isolating peripheral blood mononuclear cells (PBMCs) with mouse peripheral blood separation kit (Hao Yang Biological Manufacture CO., LTD, Tianjin) were collected from Babc/L mice (1 ml blood from two mice). Spleens were processed to splenocytes followed by 5 min incubation in red blood cell lysing buffer (from mouse peripheral blood separation kit).

Chain of BTK (Q06187 whole entry, looked up, species assumed): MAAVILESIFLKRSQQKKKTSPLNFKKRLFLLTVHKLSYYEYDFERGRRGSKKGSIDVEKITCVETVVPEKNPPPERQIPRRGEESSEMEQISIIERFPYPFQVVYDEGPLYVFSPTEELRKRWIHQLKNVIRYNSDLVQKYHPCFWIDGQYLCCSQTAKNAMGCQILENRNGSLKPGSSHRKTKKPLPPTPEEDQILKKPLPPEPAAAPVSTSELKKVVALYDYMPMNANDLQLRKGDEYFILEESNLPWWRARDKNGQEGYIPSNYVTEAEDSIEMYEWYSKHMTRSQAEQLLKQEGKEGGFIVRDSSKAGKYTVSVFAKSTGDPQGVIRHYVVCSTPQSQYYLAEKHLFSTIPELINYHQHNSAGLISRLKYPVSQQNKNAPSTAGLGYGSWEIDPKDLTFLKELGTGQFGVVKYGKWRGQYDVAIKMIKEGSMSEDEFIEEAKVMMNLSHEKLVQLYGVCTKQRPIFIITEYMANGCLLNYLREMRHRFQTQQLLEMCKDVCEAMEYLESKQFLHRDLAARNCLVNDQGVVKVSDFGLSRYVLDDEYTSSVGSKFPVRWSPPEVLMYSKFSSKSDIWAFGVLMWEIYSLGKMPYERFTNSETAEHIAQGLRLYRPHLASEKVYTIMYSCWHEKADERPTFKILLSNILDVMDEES

C=CC(=O)N1CCC[C@H]1c1nc(-c2ccc(C(=O)Nc3cc(C(F)(F)F)ccn3)cc2)c2cncc(OCC)n12 [Compound 204, (S)-4-(3-(1-acryloylpyrrolidin-2-yl)-5-ethoxyimidazo[1,5-a]pyrazin-1-yl)-N-(4-(trifluoromethyl)pyridin-2-yl)benzamide]
IC50 ([1]; read-out: BTK Inhibition): < 10 nM

CC#CC(=O)N1CC[C@@H](c2nc(-c3ccc(C(=O)Nc4cc(C(F)(F)F)ccn4)cc3F)c3cncc(OCC)n23)C1 [Compound 198, (R)-4-(3-(1-(but-2-ynoyl)pyrrolidin-3-yl)-5-ethoxyimidazo[1,5-a]pyrazin-1-yl)-3-fluoro-N-(4-(trifluoromethyl)pyridin-2-yl)benzamide]
IC50 [1]: 10 to 100 nM

C=CC(=O)N1CCCC[C@H]1c1nc(-c2ccc(Oc3cccc(OC)c3F)cc2)c2c(C)nccn12 [Compound 27, (S)-1-(2-(1-(4-(2-fluoro-3-methoxyphenoxy)phenyl)-8-methylimidazo[1,5-a]pyrazin-3-yl)piperidin-1-yl)prop-2-en-1-one]
Btk occupancy in vivo ([2]; 10 mg/kg single oral dose): full occupancy

C=CC(=O)N1CC[C@@H](c2nc(-c3ccc(C(=O)Nc4cc(C(F)(F)F)ccn4)cc3F)c3cncc(OCC)n23)C1 [Compound 197, (R)-4-(3-(1-acryloylpyrrolidin-3-yl)-5-ethoxyimidazo[1,5-a]pyrazin-1-yl)-3-fluoro-N-(4-(trifluoromethyl)pyridin-2-yl)benzamide]
IC50 ([1]; read-out: BTK Inhibition): < 10 nM

C=CC(=O)N1CCC[C@H]1c1nc(-c2ccc(Oc3cccc(OC)c3F)cc2)c2cnccn12 [Compound 30, (S)-1-(2-(1-(4-(2-fluoro-3-methoxyphenoxy)phenyl)imidazo[1,5-a]pyrazin-3-yl)pyrrolidin-1-yl)prop-2-en-1-one]
Btk occupancy in vivo ([2]; 5 mg/kg single oral dose): full occupancy

CC#CC(=O)N1CC[C@@H](c2nc(-c3ccc(C(=O)Nc4cc(C(F)(F)F)ccn4)cc3)c3cncc(OCC)n23)C1 [Compound 196, (R)-4-(3-(1-(but-2-ynoyl)pyrrolidin-3-yl)-5-ethoxyimidazo[1,5-a]pyrazin-1-yl)-N-(4-(trifluoromethyl)pyridin-2-yl)benzamide]
IC50 [1]: 100 to 1000 nM

C=CC(=O)N1CCC[C@@H](c2nc(-c3ccc(Oc4cccc(OC)c4F)cc3)c3cnccn23)C1 [Compound 1, (R)-1-(3-(1-(4-(2-fluoro-3-methoxyphenoxy)phenyl)imidazo[1,5-a]pyrazin-3-yl)piperidin-1-yl)prop-2-en-1-one]
Btk occupancy in vivo ([2]; 5 mg/kg single oral dose): full occupancy

CC#CC(=O)N1CCC[C@H]1c1nc(-c2ccc(C(=O)Nc3cc(C(F)(F)F)ccn3)cc2)c2cncc(OCC)n12 [Compound 203, (S)-4-(3-(1-(but-2-ynoyl)pyrrolidin-2-yl)-5-ethoxyimidazo[1,5-a]pyrazin-1-yl)-N-(4-(trifluoromethyl)pyridin-2-yl)benzamide]
IC50 [1]: 100 to 1000 nM
